{
  "source": "patent US20260199368A1",
  "about": "“[…] SYSTEM CONTAINING REMIMAZOLAM” (LTS LOHMANN THERAPIE-SYSTEME AG, priority 2022, published 2026)",
  "origin": "cited, not measured here",
  "conditions": "intranasal administration; cited from earlier work",
  "data": [
    {"smiles": "COC(=O)CC[C@@H]1N=C(c2ccccn2)c2cc(Br)ccc2-n2c(C)cnc21", "note": "[remimazolam, methyl 3-{(4S)-8-bromo-1-methyl-6-(pyridin-2-yl)-4/-/-imidazo[1,2-a][1,4]benzodiazepin-4-yl}propanoate]", "values": [
      {"measurement": "bioavailability", "result": "about 50%"}
    ]}
  ]
}
